Data as given in PMC5473904, “Epigenetic and antitumor effects of platinum(IV)-octanoato conjugates” (Scientific Reports, 2017).

Columns and labels:
[1] = test system: HSF human primary skin fibroblasts; assay: MTT cytotoxicity, 72 h; assay type: cell-based; conditions: platinum complexes
[2] = test system: LNCaP human prostate adenocarcinoma cells; assay: MTT cytotoxicity, 72 h; assay type: cell-based; conditions: platinum complexes
[3] = test system: MRC-5 (PD30) human fetal lung fibroblasts; assay: MTT cytotoxicity, 72 h; assay type: cell-based; conditions: platinum complexes
[4] = test system: Lewis lung carcinoma (LLC); assay: In vivo antitumor activity in Lewis lung carcinoma; conditions: LLC in C57BL mice; for Average tumor weight (mean ± SD): 20 mg kg^−1 daily orally day 7–14, day 15; for Inhibition of tumor growth: 20 mg kg^−1 daily orally day 7–14, day 15, referred to control animals
Protocol: Xenograft LLC tumors were grown in C57BL mice that were subsequently treated with […] of either Pt(IV) complex. Pt(IV) prodrugs were administered by oral gavage by taking advantage of their excellent stability, enabling in vivo oral formulation making platinum therapy safer lessening side effects and partially overcoming resistance to platinum(II) drugs, [35]. The schedule of Pt(IV) prodrug administration in vivo was initially determined by assessing the total dose that could be injected without undue toxicity in nontumor-bearing C57BL mice. From day 7 after tumor inoculation, when tumors became visible, tumor-bearing mice received daily doses of the Pt(IV) derivatives (20 mg kg^−1, by oral gavage).
The LLC cell line was purchased from ECACC, United Kingdom. The LLC cell line was maintained in DMEM (Euroclone) supplemented with 10% heat-inactivated fetal bovine serum (FBS; Euroclone), 10 mM L-glutamine, 100 U mL^−1 penicillin, and 100 μg mL^−1 streptomycin in a 5% CO2 air incubator at 37 °C. The LLC was implanted intramuscularly (im) as a 2 × 10^6 cell inoculum into the right hind leg of 8-week old male and female C57BL mice (24 ± 3 g body weight). […] At day 15, animals were sacrificed, the legs were amputated at the proximal end of the femur, and the inhibition of tumor growth was determined according to the difference in weight of the tumor-bearing leg, and the healthy leg of the animals expressed as a percentage referred to the control animals. Body weight was measured every two days and was taken as a parameter for systemic toxicity. All the values are the means ± SD of not less than three measurements.

[5] = Biodistribution of platinum after oral administration (ICP-MS); assay type: in vivo, C57BL mice; conditions: LLC-bearing mice; for Percentage of the administered drug reaching the tumor mass / Tissue platinum distribution: single oral dose 20 mg kg-1, 4 h; for Platinum concentration in blood: whole blood, single oral dose 20 mg kg-1, 1 and 4 h
Source text: It was previously shown for a similar series of dicarboxylato Pt(IV) compounds that organic chains of intermediate length offer the best compromise between lipophilicity and water solubility for oral administration. […] The details of these experiments and their results are described in the Supplementary material and Supplementary Fig. S2. […] In contrast, platinum scarcely accumulated in intestine and lung. Noteworthy, a slightly higher platinum content was found in the tumor mass in the mice treated with Pt(IV)diOA than in those treated with Pt(IV)diVPA. […]
Biodistribution after oral administration
For Pt(IV) complexes having axial carboxylato ligands, the lipophilicity increases as the number of carbon atoms in the chain increases. This lipophilicity increase offers a beneficial effect on the cellular accumulation and in vitro cytotoxic potency up to a point where the drop in water solubility impedes the administration of the drugs (around C8-C10 carbon chains)1,2.
Moreover, excessive lipophilicity can hinder transport of such Pt(IV) derivatives in vivo across intestinal epithelial cells making them more vulnerable to hepatic metabolism.
It was previously shown for a similar series of dicarboxylato Pt(IV) compounds (except the VPA-derivative) that organic chains of intermediate length offer the best compromise between lipophilicity and water solubility for oral administration3. To better understand the biodistribution properties of the Pt(IV) complexes, following administered by oral gavage in a -1 single dose (20 mg kg ), tissue samples collected from LLC-bearing mice were analyzed by ICP-MS. After 1 and 4 h, blood samples were collected and subsequently animals were sacrificed, and tissue samples were collected. The platinum levels in tumor, kidney, liver, intestine, lung and whole blood aliquots are shown in Fig. S2, panels A and B. It is important to recall that using this protocol it is possible to estimate only the overall Pt content and not its oxidation state or speciation [i.e. Pt(IV) metabolites or Pt(II) metabolites produced by reduction and further interactions]. […]
Biodistribution after oral administration. For in vivo kinetic experiments, 8-10 week old C57BL mice (24 ± 3 g body weight) received the drugs as an oral gavage single dose of -1 butanoato, hexanoato, octanoato and valproate Pt(IV) complexes (20 mg kg , dissolved in a vehicle solution composed of 20% Cremophor EL (v/v), 20% PEG400 (v/v) and 60% saline solution (v/v)). At each time point (1 and 4 h, respectively), animals were anesthetized, and blood was collected by a vain tail puncture. In addition, samples of organs (kidney, liver, lung and intestine) and tumor were collected at 4 h and stored at −20 °C. Blood, organ samples and tumor were subjected to quantitative determination of platinum content.−1 The samples were treated with highly pure nitric acid ([Pt] ≤ 0.01 μg kg TraceSELECT Ultra, Sigma Chemical Co.) and transferred into a microwave Teflon vessel. Subsequently, samples were submitted to the standard procedure using a speed microwave. After cooling, each mineralized sample was analyzed for platinum by ICP-MS (ThermoOptek X Series 2). Instrumental settings were optimized to achieve maximum sensitivity for platinum. For quantitative determination, the most abundant isotopes of platinum and indium (used as internal standard) were measured at m/z 195 and 115, respectively.
Accumulation of platinum in tumor cells treated with Pt(IV) complexes and cisplatin (in cellulo experiments) in the absence of serum. A2780 cells were seeded in 10 mm Petri dishes and treated with the platinum complexes (10 μM) for 4 h in complete medium, i.e. + 10 % FBS (HyClone, GE Healthcare). At time zero, 100 μL of medium was taken out from each sample to check the extracellular Pt concentration. At the end of the exposure, cells were washed three times with phosphate-buffered saline (PBS), detached from the Petri dishes using 0.05% Trypsin 1X + 2% EDTA (HyClone, GE Healthcare) and harvested in fresh […]

| SMILES | IC50 [1] [µM] | IC50 [2] [µM] | IC50 [3] [µM] | Average tumor weight (mean ± SD) [4] [g] | Inhibition of tumor growth [4] [%] | Percentage of the administered drug reaching the tumor mass [5] | Tissue platinum distribution [5] | Platinum concentration in blood [5] |
| --- | --- | --- | --- | --- | --- | --- | --- | --- |
| N.N.[Cl][Pt][Cl] [cisplatin, reference compound] | 69 ± 0.87 | 8.54 ± 1.78 | 10.6 ± 0.38 | – | – | – | – | – |
| CCCCCCCC(=O)[O][Pt]([NH2])([NH2])([Cl])([Cl])[O]C(=O)CCCCCCC [Pt(IV)diOA, cis, cis, trans-[Pt(IV)(NH3)2Cl2(OA)2]] | 0.077 ± 0.001 | 0.052 ± 0.005 | 0.052 ± 0.003 | 0.025 ± 0.03 | 95 | about 18% | the highest platinum concentrations were found in liver followed by tumor tissue and kidney | around 0.5 μg Pt mL^−1 |
| CCCC(CCC)C(=O)[O][Pt]([NH2])([NH2])([Cl])([Cl])[O]C(=O)C(CCC)CCC [Pt(IV)diVPA, cis, cis, trans-[Pt(IV)(NH3)2Cl2(VPA)2]] | – | – | – | 0.174 ± 0.08 | 68 | ~10% | the highest platinum concentrations were found in liver followed by tumor tissue and kidney | around 0.5 μg Pt mL^−1 |
